Source: ChEMBL document CHEMBL1154338, “Synthesis of modified homo-N-nucleosides from the reactions of mesityl nitrile oxide with 9-allylpurines and their influence on lipid peroxidation and thrombin inhibition” (Bioorg Med Chem Lett, 2009)

Columns and labels:
[1] = system: Radical scavenging activity; test: Antioxidant activity assessed as DPPH free radical scavenging activity at 0.05 mM after 20 mins; assay type: functional
[2] = system: Radical scavenging activity; test: Antioxidant activity assessed as DPPH free radical scavenging activity at 0.05 mM after 60 mins; assay type: functional
[3] = system: Radical scavenging activity; test: Antioxidant activity assessed as DPPH free radical scavenging activity at 0.1 mM after 20 mins; assay type: functional
[4] = system: Radical scavenging activity; test: Antioxidant activity assessed as DPPH free radical scavenging activity at 0.1 mM after 60 mins; assay type: functional
[5] = Antioxidant activity assessed as inhibition of xanthine-xanthine oxidase generated superoxide anion radical production at 100 uM by nitroblue tetrazolium method; assay type: functional; parameters: scale not given: the % may be the effect or the level left
[6] = Antioxidant activity assessed as inhibition of lipid peroxidation at 100 uM; assay type: functional; parameters: scale not given: the % may be the effect or the level left
[7] = Inhibition of soybean lipoxygenase; parameters: species or system Glycine max

IC50 [7] [µM]	Compound	Activity [1] [%]	Activity [2] [%]	Activity [3] [%]	Activity [4] [%]	Activity [5] [%]	Activity [6] [%]
–	CC(Cc1ccc(O)c(O)c1)C(C)Cc1ccc(O)c(O)c1 (stereo not given)	68	72	81	83	–	–
–	O=C(O)/C=C/c1ccc(O)c(O)c1	–	–	–	–	10	–
–	Cc1c(C)c2c(c(C)c1O)CCC(C)(C(=O)O)O2 (stereo not given)	–	–	–	–	–	73
100	Cc1cc(C)c(C2=NOC(Cn3cnc4c(N5CCCC5)ncnc43)C2)c(C)c1 (stereo not given)	11	11	–	–	–	52
100	Cc1cc(C)c(C2=NOC(Cn3cnc4c(N5CCOCC5)ncnc43)C2)c(C)c1 (stereo not given)	–	–	4	4	1	81
